# From patent US20170135948A1, “COMPOSITION COMPRISING EXTRACT OF AUTUMN SOYBEAN LEAVES” (AMOREPACIFIC CORPORATION, priority 2014, published 2017)
# How the values were obtained:
# collagenase = experiment: Collagenase production inhibition test in human fibroblasts; format: cell-based; conditions: 10^−4 M tocopherol or EGCG, 24 hours, untreated group = 100
# Experimental: The activity of inhibiting collagenase production of the soybean leaf extracts of stages VC, V2, V4, R2, R4, R6 and R7 prepared in Example 1 was compared with those of tocopherol (Comparative Example 1) and EGCG (Comparative Example 2). Tocopherol and EGCG are known to prevent skin aging by regenerating epidermal cells.
# Human fibroblasts (Cascade Biologics, Portland, Oreg., USA) were added to a 96-well microtiter plate containing Dulbecco's modified Eagle's medium (DMEM) supplemented with 2.5 wt % fetal bovine serum, at 5,000 cells/well, and cultured to about 90% confluence. Then, after culturing in serum-free DMEM for 24 hours and treating with 100 μg/mL of each of the soybean leaf extracts of stages VC, V2, V4, R2, R4, R6 and R7 prepared in Example 1 or 10^−4 M tocopherol or EGCG (Sigma Aldrich) for 24 hours, the cell culture was harvested.
# The production of collagenase in the cell culture harvested was measured using a collagenase measuring system (Amersham Pharmacia, USA). […]
# A absorbance of a cell culture obtained without treating with the composition was used as a control group. That is to say, the expression level of collagenase in the group treated with the test substance was calculated relative to that of the untreated group as 100.
# Collagenase expression level (%)=Absorbance of group treated with test substance/Absorbance of control group×100 [Equation 1]
# [1] = Irritation test (pricking, flushing) on the face of 15 panels sensitive to irritation; format: in vivo
# Experimental: Retinol as a known antiaging substance and the autumn soybean leaf (stage R7) extract as an active ingredient of the present disclosure were tested comparatively for irritation by 15 panels who are sensitive to irritation such as pricking, flushing, etc.
# The panels were asked to apply 0.5 mL of retinol (purchased from Sigma) or the autumn soybean leaf extract obtained in Example 1 (1 mg/mL) randomly on each face and score between 0 and 3.0 points with 0.1-point intervals.
# 1.1-2.0: Moderate irritation.
# 2.1-3.0: Severe irritation.
# [2] = Antioxidative activity test based on DPPH reduction; format: biochemical; conditions: sample concentration at which absorbance at 540 nm decreased by 50%; 100 μM DPPH, 37° C., 30 minutes
# Experimental: In order to investigate the antioxidative activity of the soybean leaf extracts of stages VC, V2, V4, R2, R4, R6 and R7 prepared in Example 1, the effect of inhibiting the oxidation of the free radical 1,1-diphenyl-2-picrylhydrazyl (DPPH) was compared by measuring the change in absorbance caused by reduction of DPPH.
# 190 μL of a 100 μM (in ethanol) DPPH solution and each of the soybean leaf extracts of stages VC, V2, V4, R2, R4, R6 and R7 obtained in Example 1 and 10,000 ppm Trolox (positive control), a synthetic antioxidant are prepared at a concentration of 10,000 ppm, diluted to a final concentration of 500 ppm, 250 ppm, 125 ppm, 62.5 ppm, 31.25 ppm or 15.63 ppm. 10 μL of each of them were mixed to prepare a reaction solution, and absorbance was measured at 540 nm after incubation at 37° C. for 30 minutes. IC50 means the sample concentration when the absorbance was decreased by 50% due to the added sample.
# [3] = score 0 to 3.0 points, 0.5 mL applied on face, extract 1 mg/mL, 15 panels
structure (smiles),measurement,setting,value
"Cc1c(C)c2c(c(C)c1O)CC[C@@](C)(CCC[C@H](C)CCC[C@H](C)CCCC(C)C)O2 [Tocopherol (Comparative Example 1), tocopherol]",Collagenase expression level (%),collagenase,74%
CC1=C(/C=C/C(C)=C/C=C/C(C)=C/CO)C(C)(C)CCC1 [Retinol],Irritation such as pricking and flushing (in words),"[1]; grade by the scoring standard, 0.5 mL applied on face",slight irritation
same,Mean (irritation score),"[1]; mean of pricking and flushing scores, 0 to 3.0 points",0.65
same,Flushing (irritation score),[1]; [3],0.42
same,Pricking (irritation score),[1]; [3],0.87
"Cc1c(C)c2c(c(C)c1O)CCC(C)(C(=O)O)O2 (stereo not shown) [Trolox (positive control), Trolox]",IC50 (ppm),[2],38 ppm
"O=C(O[C@@H]1Cc2c(O)cc(O)cc2O[C@@H]1c1cc(O)c(O)c(O)c1)c1cc(O)c(O)c(O)c1 [EGCG (Comparative Example 2), EGCG]",Collagenase expression level (%),collagenase,61%
